Source: patent US10227361B2, “Fused imidazobenzothiazole compounds” (TORRENT PHARMACEUTICALS LIMITED, priority 2014, dated 2019)

How the values were obtained:
[1] = rheumatoid arthritis; possibly; cited from earlier work
[2] = biological target: T1, purified recombinant human p38 alpha MAPK (Homo sapiens, UniProt Q16539); test: Inhibition of p38 alpha MAPK activity: TR-FRET kinase assay; assay type: biochemical; details: read-out: P38α Inhibition; for inhibition at 1 µM: Concentration 1 μM
T1 construct: purchased Millipore, USA
T1 sequence (Q16539 whole entry): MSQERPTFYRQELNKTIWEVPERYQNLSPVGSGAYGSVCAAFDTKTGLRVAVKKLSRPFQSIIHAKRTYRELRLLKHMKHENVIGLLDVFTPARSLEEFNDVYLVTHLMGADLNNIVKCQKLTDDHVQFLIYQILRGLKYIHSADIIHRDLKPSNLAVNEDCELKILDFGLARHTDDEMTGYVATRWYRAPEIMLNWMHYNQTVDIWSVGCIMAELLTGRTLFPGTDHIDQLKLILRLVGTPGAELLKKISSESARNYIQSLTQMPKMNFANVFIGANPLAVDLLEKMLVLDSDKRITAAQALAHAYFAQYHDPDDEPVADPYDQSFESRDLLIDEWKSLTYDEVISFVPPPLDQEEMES
Experimental: Inhibition of p38 Alpha MAPK Activity: Time-Resolved Fluorescence Resonance Energy Transfer Kinase Standard Assay (TR-FRET Assay)
Compounds of present invention at various concentrations were premixed with DMSO. The experiment was initiated by mixing 0.5% 1.0% DMSO as vehicle/compounds with purified recombinant human p38 alpha MAPK (Millipore, USA) in the wells and 15 min incubation at RT. Thereafter, 30 nM of Biotinylated GST-ATF2 (Activation Transcription Factor2) and 100 μM of ATP were added in to the wells containing reaction mixture, followed by reincubation for 60 minutes at RT. Reaction was terminated by addition of 10 mM of EDTA and detection reagent containing anti-phosphothreonine ATF2 antibody (Perkin Elmer, USA) labelled with europium chelate and APC (Allophycocyanin) labeled streptavidin, into the reaction mixture which was further incubated for 60 minutes at room temperature. The degree of phosphorylation of the substrate (GST-ATF2) was measured using Envision multimode reader (Perkin Elmer). Percentage inhibition of p38 kinase activity was calculated by determining ratio of specific europium 665 nm energy transfer signal to reference 615 nm signal.

[3] = system: tobacco smoke induced airway inflammation in mice; test: Acute mouse model of tobacco smoke induced airway inflammation (BALF neutrophils); assay type: in vivo; details: BAL fluid, exposure 25 minutes; for Neutrophil (*10^3 cells/animal): Mean ± SEM
Source text: The tobacco smoke induced airway inflammation model is used for in vivo efficacy of compound. Many investigators have used acute tobacco smoke (TS) exposure in rodents as models of airway inflammation for quick screening of anti-inflammatory therapies for COPD (J Pharmacol Exp Ther. 2008; 324(3):921-9; J Pharmacol Exp Ther. 2010; 332(3):764-75; Journal of Inflammation 2013, 10(Suppl 1):31 and Eur Respir J Suppl 2006; 663s:3850). Given its position as predominant cause of COPD, animal models using TS exposure would appear to be the logical choice for investigation (Respir Res. 2004; 2; 5:18).
A: Efficacy Studies in Acute Mouse Model of Airway Inflammation
Mice were exposed to tobacco smoke (TS) in an acrylic chamber. Animals were exposed to TS from 8, 12, 16 cigarettes on day1, day2, day 3 respectively. From day 4 onwards till day 11, animals were exposed to TS from 20 cigarettes per day. On 11 days of exposure of mice to TS, significant inflammatory cell recruitment, predominantly neutrophils, to lungs was observed as compared to air exposed control mice (BALF neutrophil levels, nil in air control group vs 93.8±11.7*10^3 cells/animal in smoke exposed vehicle group).
Lung delivery of test compound was achieved by whole body aerosol exposure for 25 minutes in a chamber. Mice were divided in different dose groups and exposed in a chamber for 25 minutes with vehicle or Compound No. 22 (0.3 mg/ml) or Compound No. 22 (3 mg/ml)) or Compound No. 31 (0.3 mg/ml) or Compound No. 31 (1.0 mg/ml). A total quantity of 3.5 ml of either vehicle or test compound formulation (suspension formulation with D90<5μ, with Malvern Mastersizer®) was nebulized in a chamber to respective groups over 25 mins period. Test compounds were administered 2 hr prior to TS exposure from day 6 to day 11. Bronchoalveolar lavage (BAL) was performed 24 hr post last TS exposure.
Trachea of animal was cannulated using catheter. Phosphate Buffer Saline (PBS) was used as lavage fluid. A volume of 0.5 ml was gently instilled and withdrawn and collected in microcentrifuge tube placed on ice. This procedure was repeated further 2 times.
(§1) Lavage fluid was separated from cells by centrifugation and supernatant separated. The cell pallet was resuspended in known volume of PBS. Cells in aliquot were stained using Turk solution and total cell numbers were calculated by counting Turk stained aliquot under microscope using haemocytometer.
(§2) The residual cell suspension was resuspended and slides prepared using cyto centrifuge technique (Cytospin 4, Thermo Shandon). The slides were then fixed with methanol, air dried and stained with May Grunwald Giemsa stain. Up to 300 cells were counted and differentiated using standard morphometric techniques under light microscopy.
All results are presented at individual data for each animal and mean value calculated for each group. Percentage inhibition for the neutrophil was calculated for Compound No. 22 & 31 treatment group against vehicle group.

[4] = system: tobacco smoke induced airway inflammation in guinea pig; test: Acute guinea pig model of tobacco smoke induced airway inflammation (BALF neutrophils); assay type: in vivo, Guinea pigs; details: BAL fluid, 6 mg/ml aerosol, exposure 75 minutes
Source text: B. (I) Efficacy Studies in Acute Guinea Pig Model of Airway Inflammation
Guinea pigs were exposed to tobacco smoke (TS) in an acrylic chamber. Animals were exposed to TS from 5, 10, 15 cigarettes on day 1, day 2, day 3 respectively. From day 4 onwards till day 11, animals were exposed to TS from 15 cigarettes per day. On 11 days of exposure of guinea pig to TS, significant inflammatory cell recruitment, predominantly neutrophils, to lungs was observed as compared to air exposed control guinea pig (BALF neutrophil levels, 0.23±0.052*10^6 cells/animal in air control group vs 3.5±0.62*10^6 cells/animal in smoke exposed vehicle group).
Lung delivery of test compound was achieved by whole body aerosol exposure for 75 minutes in a chamber. […] A total quantity of 7.0 ml of either vehicle or test compound formulation (suspension formulation with D90<5μ, with Malvern Mastersizer®) was nebulized in chambers to respective groups over 75 mins period. […]
Lavage fluid was separated from cells by centrifugation and supernatant separated. […] Cells in aliquot were stained using Turk solution and total cell numbers were calculated by counting Turk stained aliquot under microscope using haemocytometer. […]
All results are presented at individual data for each animal and mean value calculated for each group. Percentage inhibition for the neutrophil was calculated for Compound No 31 treatment group against vehicle group.

[5] = system: tobacco smoke (TS) and LPS induced chronic COPD model in guinea pigs; test: Chronic model of COPD in guinea pigs (TS and LPS, 18 weeks); assay type: in vivo
Experimental: (II) Efficacy Studies in Chronic Model of COPD in Guinea Pigs
Guinea pigs were exposed to tobacco smoke (TS) and LPS in an acrylic chamber. Exposure to TS and LPS is given in the manner as illustrated in FIG. 3 in a week for a total of 18 weeks.
Lung delivery of test material was achieved by whole body aerosol exposure for 75 minutes in a chamber. Guinea pig were divided in different dose groups and exposed to vehicle or Compound No. 31 (2 mg/ml). A total quantity of 7.0 ml of either vehicle or Compound No. 31 (suspension formulation with D90<5μ, with Malvern Mastersizer®) was nebulized in chambers to respective groups over 75 mins period. Compound No 31 was administered 2 hr prior to TS/LPS exposure once daily from week 9 to week 18. Control animals were exposed to room air instead of TS and PBS instead of LPS. Lung function and bronchoalveolar lavage (BAL) for each animal was performed 24 hr post last TS exposure.
Lung function assessment in anesthetized and tracheotomized animal was carried out using PFT maneuvers (BUXCO, USA) for determination of various parameters such as Functional Residual Capacity (FRC), Residual volume (RV), Pressure volume and flow volume relationships.
Trachea of animal was cannulated using catheter. Phosphate Buffer Saline (PBS) was used as lavage fluid. A volume of 5.0 ml was gently instilled and withdrawn and collected in microcentrifuge tube placed on ice. This procedure was repeated further 5 times.
as §1, §2
After collection of BALF lung was fixed under constant pressure using neutral buffered formaline, which is to be used further for histopathological analysis. Hematoxylin and eosin stained slides were used for assessment of lung inflammatory cell influx and alveolar & epithelial inflammatory changes. Periodic acid-Schiff-diastase stained slides were used to evaluate mucin secreting cells and Masson's trichome stained slides were used for assessment of collagen fibers in parenchyma.
All results are presented at individual data for each animal and mean value calculated for each group. Percentage inhibition for the neutrophil was calculated for compound no 31 group against vehicle group.

[6] = treated up to 12-24 weeks; cited from earlier work

Cc1ccc(-n2nc(C(C)(C)C)cc2NC(=O)Nc2ccc(OCCN3CCOCC3)c3ccccc23)cc1 [BIRB-796]
reason for withdrawal from Phase II clinical trials [1]: liver enzyme elevations

CC(C)(C)c1cc(NC(=O)NCc2ccccc2Oc2ccc3c(c2)sc2ncc(CO)n23)n(-c2ccc(O)c(Cl)c2)n1 [Compound 22, 1-[3-tert-butyl-1-(3-chloro-4-hydroxyphenyl)-1H-pyrazol-5-yl]-3-(2-{[3-(hydroxymethyl)imidazo[2,1-b][1,3]benzothiazol-7-yl]oxy}benzyl)urea]
inhibition at 1 µM [2]: 80 to 100% | % Inhibition (neutrophil, against vehicle group) ([3]; 0.3 mg/ml aerosol): 24% | Neutrophil (*10^3 cells/animal) ([3]; 0.3 mg/ml aerosol): 71.2 ± 13.6 *10^3 cells/animal | % Inhibition (neutrophil, against vehicle group) ([3]; 3 mg/ml aerosol): 62% | Neutrophil (*10^3 cells/animal) ([3]; 3 mg/ml aerosol): 35.2 ± 3.7 *10^3 cells/animal

COCc1cnc2sc3cc(Oc4ccccc4CNC(=O)Nc4cc(C(C)(C)C)nn4-c4ccc(O)c(Cl)c4)ccc3n12 [Compound 31, 1-[3-tert-butyl-1-(3-chloro-4-hydroxyphenyl)-1H-pyrazol-5-yl]-3-(2-{[3-(methoxymethyl)imidazo[2,1-b][1,3]benzothiazol-7-yl]oxy}benzyl)urea]
inhibition at 0.1 µM ([2]; Concentration 100 nM): 80 to 100% | % Inhibition (neutrophil, against vehicle group) ([3]; 0.3 mg/ml aerosol): 60% | Neutrophil (*10^3 cells/animal) ([3]; 0.3 mg/ml aerosol): 40.3 ± 6.2 *10^3 cells/animal | % Inhibition (neutrophil, against vehicle group) ([3]; 1.0 mg/ml aerosol): 80% | Neutrophil (*10^3 cells/animal) ([3]; 1.0 mg/ml aerosol): 20.4 ± 3.8 *10^3 cells/animal | % Inhibition (neutrophil, against vehicle group) [4]: 48% | Neutrophil (*10^6 cells/animal) ([4]; Mean ± SEM): 1.8 ± 0.28 *10^6 cells/animal | % inhib^n (neutrophil, against vehicle group) ([5]; guinea pig chronic COPD model, BALF, 2 mg/ml aerosol, 75 minutes): 52% | Neutrophil (*10^6cells) ([5]; guinea pig chronic COPD model, BALF, 2 mg/ml aerosol, 75 minutes, once daily week 9 to 18, Mean ± SEM): 3.3 ± 0.71 *10^6cells | Composite score (Range) ([5]; lung remodeling, histopathological analysis of lung tissue, 2 mg/ml): 0.4 (0.1 to 0.5) | Average number of mucin secreting cells/10 high power field (Range) ([5]; mucus secretion, 2 mg/ml): 301 (190-420) cells/10 high power field

CC(C)(C)c1cc(NC(=O)NCc2ccccc2Oc2ccc3c(c2)sc2ncc(COCC4CC4)n23)n(-c2ccc(O)c(Cl)c2)n1 [Compound 56, 1-[3-tert-butyl-1-(3-chloro-4-hydroxyphenyl)-1H-pyrazol-5-yl]-3-[2-({3-[(cyclopropylmethoxy)methyl]imidazo[2,1-b][1,3]benzothiazol-7-yl}oxy)benzyl]urea]
inhibition at 1 µM [2]: 60 to 80%

Cc1cnc(-c2cnc3sc4cc(Oc5ccccc5CNC(=O)Nc5cc(C(C)(C)C)nn5-c5ccc(O)c(Cl)c5)ccc4n23)o1 [Compound 64, 1-[3-tert-butyl-1-(3-chloro-4-hydroxyphenyl)-1H-pyrazol-5-yl]-3-(2-{[3-(5-methyl-1,3-oxazol-2-yl)imidazo[2,1-b][1,3]benzothiazol-7-yl]oxy}benzyl)urea]
inhibition at 1 µM [2]: 60 to 80%

CC(C)(C)c1cc(NC(=O)NCc2ccccc2Oc2ccc3c(c2)sc2ncc(CN4CCC(O)CC4)n23)n(-c2ccc(O)c(Cl)c2)n1 [Compound 65, 1-[3-tert-butyl-1-(3-chloro-4-hydroxyphenyl)-1H-pyrazol-5-yl]-3-[2-({3-[(4-hydroxypiperidin-1-yl)methyl]imidazo[2,1-b][1,3]benzothiazol-7-yl}oxy)benzyl]urea]
inhibition at 1 µM [2]: 60 to 80%

CCOC(=O)c1cnc2sc3cc(Oc4ccccc4CNC(=O)Nc4cc(C(C)(C)C)nn4-c4ccccc4)ccc3n12 [Compound 67, ethyl 7-[2-({[(3-tert-butyl-1-phenyl-1H-pyrazol-5-yl)carbamoyl]amino}methyl)phenoxy]imidazo[2,1-b][1,3]benzothiazole-3-carboxylate]
inhibition at 1 µM [2]: 60 to 80%

COc1c(NC(=O)NCc2ccccc2Oc2ccc3c(c2)sc2ncc(CN4CCOCC4)n23)cc(C(C)(C)C)cc1NS(C)(=O)=O [Compound 74, N-(5-tert-butyl-2-methoxy-3-{[(2-{[3-(morpholin-4-ylmethyl)imidazo[2,1-b][1,3]benzothiazol-7-yl]oxy}benzyl)carbamoyl]amino}phenyl) methanesulfonamide]
inhibition at 1 µM [2]: 60 to 80%

Cc1c(F)cc(C(=O)NC2CC2)cc1-c1ccc(C(=O)NCC(C)(C)C)cn1 [Losmapimod]
tolerability in clinical studies [6]: well tolerated

CNC(=O)c1ccc(C)c(-n2c(C)cc(OCc3ccc(F)cc3F)c(Br)c2=O)c1 [PH-797804]
tolerability in clinical studies [6]: well tolerated
